Data taken from ChEMBL document CHEMBL3596165, “Synthesis, structure elucidation and identification of antiproliferative activities of a novel class of thiophene bioisosteres bearing the privileged 7,8-dihydroimidazo[2,1-c][1,2,4]triazin-4(6H)-one scaffold” (Bioorg Med Chem, 2015).

Experiments:
[1] = Antiproliferative activity against African green monkey Vero cells at 50 ug/ml after 48 hrs by BrdUrd incorporation assay; format: cell-based; conditions: chlorocebus sabaeus, read-out: GI
[2] = system: HeLa; assay: Antiproliferative activity against human HeLa cells after 72 hrs by BrdUrd incorporation assay; format: functional, cell-based
[3] = system: A549; assay: Antiproliferative activity against human A549 cells after 72 hrs by BrdUrd incorporation assay; format: functional, cell-based; conditions: A549, 72 h
[4] = system: T47D; assay: Antiproliferative activity against human T47D cells at 50 ug/ml after 48 hrs by BrdUrd incorporation assay; format: functional; conditions: read-out: GI
[5] = system: TOV112D; assay: Antiproliferative activity against human TOV112D cells at 50 ug/ml after 72 hrs by BrdUrd incorporation assay; format: functional; conditions: read-out: GI
[6] = system: Vero; assay: Antiproliferative activity against African green monkey Vero cells after 24 hrs by BrdUrd incorporation assay; format: cell-based; conditions: chlorocebus sabaeus
[7] = system: A549; assay: Antiproliferative activity against human A549 cells at 50 ug/ml after 24 hrs by BrdUrd incorporation assay; format: functional; conditions: A549, 24 h, read-out: GI
[8] = system: Vero; assay: Antiproliferative activity against African green monkey Vero cells at 50 ug/ml after 24 hrs by BrdUrd incorporation assay; format: cell-based; conditions: chlorocebus sabaeus
[9] = system: A549; assay: Antiproliferative activity against human A549 cells after 24 hrs by BrdUrd incorporation assay; format: functional, cell-based; conditions: A549, 24 h
[10] = system: TOV112D; assay: Antiproliferative activity against human TOV112D cells after 48 hrs by BrdUrd incorporation assay; format: functional, cell-based
[11] = system: T47D; assay: Antiproliferative activity against human T47D cells at 50 ug/ml after 24 hrs by BrdUrd incorporation assay; format: functional; conditions: read-out: GI
[12] = system: TOV112D; assay: Antiproliferative activity against human TOV112D cells after 72 hrs by BrdUrd incorporation assay; format: functional, cell-based
[13] = system: Vero; assay: Antiproliferative activity against African green monkey Vero cells after 72 hrs by BrdUrd incorporation assay; format: cell-based; conditions: Chlorocebus sabaeus
[14] = Antiproliferative activity against African green monkey Vero cells at 50 ug/ml after 72 hrs by BrdUrd incorporation assay; format: cell-based; conditions: chlorocebus sabaeus, read-out: GI
[15] = system: Vero; assay: Antiproliferative activity against African green monkey Vero cells after 48 hrs by BrdUrd incorporation assay; format: cell-based; conditions: Chlorocebus sabaeus
[16] = system: TOV112D; assay: Antiproliferative activity against human TOV112D cells at 50 ug/ml after 24 hrs by BrdUrd incorporation assay; format: functional; conditions: read-out: GI
[17] = system: HeLa; assay: Antiproliferative activity against human HeLa cells at 50 ug/ml after 72 hrs by BrdUrd incorporation assay; format: functional; conditions: read-out: GI
[18] = system: HeLa; assay: Antiproliferative activity against human HeLa cells at 50 ug/ml after 24 hrs by BrdUrd incorporation assay; format: functional; conditions: read-out: GI
[19] = system: T47D; assay: Antiproliferative activity against human T47D cells at 50 ug/ml after 72 hrs by BrdUrd incorporation assay; format: functional; conditions: read-out: GI
[20] = system: HeLa; assay: Antiproliferative activity against human HeLa cells at 50 ug/ml after 48 hrs by BrdUrd incorporation assay; format: functional; conditions: read-out: GI
[21] = system: T47D; assay: Antiproliferative activity against human T47D cells after 48 hrs by BrdUrd incorporation assay; format: functional, cell-based
[22] = system: A549; assay: Antiproliferative activity against human A549 cells after 48 hrs by BrdUrd incorporation assay; format: functional, cell-based; conditions: A549, 48 h
[23] = system: HeLa; assay: Antiproliferative activity against human HeLa cells after 48 hrs by BrdUrd incorporation assay; format: functional, cell-based
[24] = system: TOV112D; assay: Antiproliferative activity against human TOV112D cells at 50 ug/ml after 48 hrs by BrdUrd incorporation assay; format: functional; conditions: read-out: GI
[25] = system: A549; assay: Antiproliferative activity against human A549 cells at 50 ug/ml after 48 hrs by BrdUrd incorporation assay; format: functional; conditions: A549, 48 h, read-out: GI
[26] = system: T47D; assay: Antiproliferative activity against human T47D cells after 72 hrs by BrdUrd incorporation assay; format: functional, cell-based
[27] = system: T47D; assay: Antiproliferative activity against human T47D cells after 24 hrs by BrdUrd incorporation assay; format: functional, cell-based
[28] = system: TOV112D; assay: Antiproliferative activity against human TOV112D cells after 24 hrs by BrdUrd incorporation assay; format: functional, cell-based
[29] = system: HeLa; assay: Antiproliferative activity against human HeLa cells after 24 hrs by BrdUrd incorporation assay; format: functional, cell-based
[30] = system: A549; assay: Antiproliferative activity against human A549 cells at 50 ug/ml after 72 hrs by BrdUrd incorporation assay; format: functional; conditions: A549, 72 h, read-out: GI

Row | SMILES | inhibition at 48 h, 50 ug/ml [1] | IC50 [2] | IC50 [3] | inhibition of growth at 50 µg/mL [4] | inhibition of growth at 50 µg/mL [5] | IC50 [6] | inhibition of growth at 50 µg/mL [7] | growth inhibition (GI) [8] | IC50 [9] | IC50 [10] | inhibition of growth at 50 µg/mL [11] | IC50 [12] | IC50 [13] | inhibition at 72 h, 50 ug/ml [14] | IC50 [15] | inhibition of growth at 50 µg/mL [16] | inhibition of growth at 50 µg/mL [17] | inhibition of growth at 50 µg/mL [18] | inhibition of growth at 50 µg/mL [19] | inhibition of growth at 50 µg/mL [20] | other results
1 | O=c1c(-c2cccs2)nnc2n1CCN2c1ccc(Cl)cc1 | 60% | 80 µM | 80 µM | 100% | 100% | > 150 µM | 80% | 25% | 90 µM | 80 µM | 90% | 80 µM | 80 µM | 90% | 130 µM | 75% | 100% | 50% | 100% | 90% | IC50 [21]: 80 µM; IC50 [22]: 80 µM; IC50 [23]: 80 µM; inhibition of growth at 50 µg/mL [24]: 90%; inhibition of growth at 50 µg/mL [25]: 90%; IC50 [26]: 80 µM; IC50 [27]: 80 µM; IC50 [28]: 100 µM; IC50 [29]: 150 µM; inhibition of growth at 50 µg/mL [30]: 100%
2 | Cc1ccccc1N1CCn2c1nnc(-c1cccs1)c2=O | 50% | 90 µM | 80 µM | 90% | 100% | > 160 µM | 80% | 25% | 100 µM | 80 µM | 80% | 80 µM | 90 µM | 90% | 160 µM | 90% | 90% | 45% | 100% | 75% | IC50 [21]: 90 µM; IC50 [22]: 80 µM; IC50 [23]: 110 µM; inhibition of growth at 50 µg/mL [24]: 100%; inhibition of growth at 50 µg/mL [25]: 95%; IC50 [26]: 80 µM; IC50 [27]: 100 µM; IC50 [28]: 90 µM; IC50 [29]: > 160 µM; inhibition of growth at 50 µg/mL [30]: 100%
3 | O=c1c(-c2cccs2)nnc2n1CCN2c1cccc(Cl)c1 | 100% | 80 µM | 80 µM | 100% | 100% | 80 µM | 90% | 100% | 80 µM | 80 µM | 100% | 80 µM | 80 µM | 100% | 80 µM | 90% | 100% | 90% | 100% | 100% | IC50 [21]: 80 µM; IC50 [22]: 80 µM; IC50 [23]: 80 µM; inhibition of growth at 50 µg/mL [24]: 100%; inhibition of growth at 50 µg/mL [25]: 100%; IC50 [26]: 80 µM; IC50 [27]: 80 µM; IC50 [28]: 80 µM; IC50 [29]: 80 µM; inhibition of growth at 50 µg/mL [30]: 100%
4 | COc1ccccc1N1CCn2c1nnc(-c1cccs1)c2=O | 75% | 100 µM | 80 µM | 90% | 90% | 150 µM | 70% | 50% | 110 µM | 100 µM | 80% | 80 µM | 90 µM | 90% | 100 µM | 75% | 80% | 50% | 95% | 60% | IC50 [21]: 90 µM; IC50 [22]: 100 µM; IC50 [23]: 130 µM; inhibition of growth at 50 µg/mL [24]: 80%; inhibition of growth at 50 µg/mL [25]: 80%; IC50 [26]: 80 µM; IC50 [27]: 100 µM; IC50 [28]: 100 µM; IC50 [29]: 150 µM; inhibition of growth at 50 µg/mL [30]: 90%
5 | O=c1c(-c2cccs2)nnc2n1CCN2c1ccccc1 | 75% | 80 µM | 80 µM | 100% | 100% | 170 µM | 80% | 50% | 110 µM | 80 µM | 95% | 80 µM | 90 µM | 90% | 110 µM | 90% | 100% | 70% | 100% | 100% | IC50 [21]: 90 µM; IC50 [22]: 90 µM; IC50 [23]: 90 µM; inhibition of growth at 50 µg/mL [24]: 100%; inhibition of growth at 50 µg/mL [25]: 90%; IC50 [26]: 80 µM; IC50 [27]: 90 µM; IC50 [28]: 90 µM; IC50 [29]: 120 µM; inhibition of growth at 50 µg/mL [30]: 100%
